One may read the IC50 as the midpoint of a concentration-inhibition curve. A high value points to lower potency.

The values below come from patent US20090247516A1, “3- (BENZO [D] [1,3] DIOXOL-5-YLMETHYL) -4- (THIO) OXO-2- (THIO) OXO-AZOLIDIN-5-YLIDENE DERIVATIVES AS ANTIBACTERIAL AGENTS” (priority 2006, published 2009).

Where two headings read alike, the source gives them in different places. A value given as a limit tells only on which side of the number the result lay.

For one assay, the target named is E. coli MurD (Escherichia coli, UniProt P14900). Briefly: MurD enzyme assay (Method A). The assay is classed as biochemical. To be noted: for activity at 100 µM: read-out: E. coli MurD RA at 100 μM inhibitor conc. The protocol:
Method A: MurD Enzyme Assay
The compounds are tested for their ability to inhibit the formation of UDP-MurNAc-L-Ala-D-[^14C]Glu in mixtures (50 μl) containing 0.1 M Tris-HCl, pH 8.6, 5 mM MgCl2, 5 mM ATP, 25 μM UDP-MurNAc-L-Ala, 25 μM D-[^14C]Glu, inhibitor (100 μM), DMSO (5%, v/v), and enzyme. After 30 min at 37° C., the reaction is stopped by addition of acetic acid (10 μl). After lyophilization, D-[^14C]Glu and of UDP-MurNAc-L-Ala-D-[^14C]Glu are separated by reverse-phase HPLC and quantitated by on-line scintillation counting. The residual activity is determined with respect to an assay with 5% DMSO and without inhibitor (taken as 100%). Values presented are means of duplicates.
IC50 values are determined with several concentrations of the inhibitor using the Hill equation:
(§1) log[vi/(vo−vi)]=−n log[l]+logK′
(§2) where vo is the rate without inhibitor, vi the rate in the presence of inhibitor and n the Hill number.

The target in a further assay is T1, S. aureus MurE (Staphylococcus aureus, UniProt Q2FZP6).
T1 sequence (Q2FZP6 1-493): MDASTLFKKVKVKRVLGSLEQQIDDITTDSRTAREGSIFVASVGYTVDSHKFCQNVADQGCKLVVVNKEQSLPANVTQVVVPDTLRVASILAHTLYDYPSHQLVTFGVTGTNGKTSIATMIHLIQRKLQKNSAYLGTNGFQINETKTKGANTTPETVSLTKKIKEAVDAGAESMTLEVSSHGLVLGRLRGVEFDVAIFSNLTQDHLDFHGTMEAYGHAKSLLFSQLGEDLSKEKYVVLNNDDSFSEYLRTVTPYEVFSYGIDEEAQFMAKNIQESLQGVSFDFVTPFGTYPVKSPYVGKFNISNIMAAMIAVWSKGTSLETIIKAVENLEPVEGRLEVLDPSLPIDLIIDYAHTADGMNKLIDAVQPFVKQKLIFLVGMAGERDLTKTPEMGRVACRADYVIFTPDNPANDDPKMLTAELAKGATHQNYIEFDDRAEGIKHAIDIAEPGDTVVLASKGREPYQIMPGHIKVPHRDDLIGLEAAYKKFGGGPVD
The assay can be described thus: MurE enzyme assay (Method B). The assay is classed as biochemical. To be noted: for activity at 100 µM: residual activity at 100 μM inhibitor, assay with 5% DMSO and without inhibitor taken as 100%, means of duplicates, read-out: S. aureus MurE RA at 100 μM inhibitor conc.; for IC50: several inhibitor concentrations, Hill equation. As to the method: Method B: MurE Enzyme Assay
The compounds are tested for their ability to inhibit the formation of UDP-MurNAc-L-Ala-γ-D-Glu-L-[^14C]Lys in mixtures (50 μl) containing 0.1 M Tris-HCl, pH 8.6, 15 mM MgCl2, 5 mM ATP, 100 μM UDP-MurNAc-L-Ala-γ-D-Glu, 200 μM L-[^14C]Lys (50,000 cpm), inhibitor (100 μM), DMSO (5%, v/v), and enzyme from S. aureus. After 30 min at 37° C., the reaction is stopped by addition of acetic acid (10 μl). After lyophilization, L-[^14C]Lys and of UDP-MurNAc-L-Ala-Y-D-Glu-L-[^14C]Lys are separated by reverse-phase HPLC on Nucleosil 100C18 5U (150×4.6 mm) in 50 mM ammonium formate, pH 4.7, at 0.6 ml/min, and quantitated by on-line scintillation counting using the Quicksafe Flow 2 scintillating fluid. The residual activity is determined with respect to an assay with 5% DMSO and without inhibitor (taken as 100%). Values presented are means of duplicates.
IC50 values were determined with several concentrations of the inhibitor using the Hill equation:
as §1, §2

[1] abbreviates: residual activity at 100 μM inhibitor, assay with 5% DMSO and without inhibitor taken as 100%, means of duplicates.

E. coli MurD, sequence (P14900 whole entry): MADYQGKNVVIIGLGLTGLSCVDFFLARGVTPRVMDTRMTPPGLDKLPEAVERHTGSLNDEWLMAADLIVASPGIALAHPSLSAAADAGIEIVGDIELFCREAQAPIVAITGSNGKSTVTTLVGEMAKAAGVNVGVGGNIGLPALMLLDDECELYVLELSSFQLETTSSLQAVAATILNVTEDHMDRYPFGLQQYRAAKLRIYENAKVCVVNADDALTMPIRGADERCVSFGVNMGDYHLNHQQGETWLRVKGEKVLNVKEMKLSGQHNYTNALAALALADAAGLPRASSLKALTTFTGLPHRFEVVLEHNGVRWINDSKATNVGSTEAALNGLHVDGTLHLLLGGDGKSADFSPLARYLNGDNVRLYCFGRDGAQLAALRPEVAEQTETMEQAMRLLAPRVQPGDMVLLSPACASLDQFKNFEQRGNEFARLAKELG

For `O=C1/C(=C/c2c(NCCCO)nc3ccccn3c2=O)SC(=S)N1Cc1ccc2c(c1)OCO2` [Example 1, (Z)-3-(benzo[d][1,3]dioxol-5-yl-methyl)-5-((2-(3-hydroxypropylamino)-4-oxo-4H-pyrido[1,2-a]pyrimidin-3-yl)methylene)-2-thioxothiazolidin-4-one], the IC50 against E. coli MurD and at S. aureus MurE was over 100 µM throughout. In addition, the activity at 100 µM on E. coli MurD (setting [1]) was 77%; at S. aureus MurE it was 82%.

Take `CNc1nc2ccccn2c(=O)c1/C=C1\SC(=S)N(Cc2ccc3c(c2)OCO3)C1=O` [Example 2, (Z)-3-(benzo[d][1,3]dioxol-5-yl-methyl)-5-((2-(methylamino)-4-oxo-4H-pyrido[1,2-a]pyrimidin-3-yl)methylene)-2-thioxothiazolidin-4-one]: on E. coli MurD, the IC50 was determined as 111 µM and the activity at 100 µM worked out at 22%. At S. aureus MurE, the activity at 100 µM was found to be 7% and the IC50 came out at 4 µM.

For the compound `O=C1/C(=C/c2c(NCC3CCCO3)nc3ccccn3c2=O)SC(=S)N1Cc1ccc2c(c1)OCO2` (centres unmarked) [Example 3, (Z)-3-(benzo[d][1,3]dioxol-5-yl-methyl)-5-((4-oxo-2-((tetrahydrofuran-2-yl)methylamino)-4H-pyrido[1,2-a]pyrimidin-3-yl)methylene)-2-thioxothiazolidin-4-one], the IC50 against E. coli MurD is 24 µM; at S. aureus MurE it was 5 µM. For the same compound, the activity at 100 µM on E. coli MurD (setting [1]) amounted to 7%; on S. aureus MurE it was 4%.

Consider `O=C1/C(=C/c2c(NCCO)nc3ccccn3c2=O)SC(=S)N1Cc1ccc2c(c1)OCO2` [Example 4, (Z)-3-(benzo[d][1,3]dioxol-5-yl-methyl)-5-((2-(2-hydroxyethylamino)-4-oxo-4H-pyrido[1,2-a]pyrimidin-3-yl)methylene)-2-thioxothiazolidin-4-one], for which the results for the IC50 at E. coli MurD and at S. aureus MurE were 15 µM and 4 µM, respectively. Also, the activity at 100 µM at E. coli MurD (setting [1]) is 26%; at S. aureus MurE it was 4%.

On to `O=C1/C(=C/c2c(NCCOCCO)nc3ccccn3c2=O)SC(=S)N1Cc1ccc2c(c1)OCO2` [Example 5, (Z)-3-(benzo[d][1,3]dioxol-5-yl-methyl)-5-((2-(2-(2-hydroxyethoxy)ethylamino)-4-oxo-4H-pyrido[1,2-a]pyrimidin-3-yl)methylene)-2-thioxothiazolidin-4-one], for which the IC50 was over 100 µM on E. coli MurD and 14 µM at S. aureus MurE. The activity at 100 µM at E. coli MurD (setting [1]) was 71%; at S. aureus MurE, 10%.

As for `O=C1/C(=C/c2ccccn2)SC(=S)N1Cc1ccc2c(c1)OCO2` [Example 6, (Z)-3-(benzo[d][1,3]dioxol-5-yl-methyl)-5-(pyridin-2-yl-methylene)-2-thioxothiazolidin-4-one], the IC50 is over 100 µM against E. coli MurD and 37 µM against S. aureus MurE. The activity at 100 µM was 99% at E. coli MurD (setting [1]) and 5% at S. aureus MurE.

`O=C1/C(=C/c2cccc([N+](=O)[O-])c2)SC(=S)N1Cc1ccc2c(c1)OCO2` [Example 7, (Z)-3-(benzo[d][1,3]dioxol-5-yl-methyl)-5-(3-nitrobenzylidene)-2-thioxothiazolidin-4-one]: the IC50 was over 100 µM on E. coli MurD and 7 µM at S. aureus MurE. In addition, the figures for the activity at 100 µM at E. coli MurD (setting [1]) and at S. aureus MurE were 98% and 19%, respectively.

Turning to `O=C1/C(=C/c2ccccc2O)SC(=S)N1Cc1ccc2c(c1)OCO2` [Example 8, (Z)-3-(benzo[d][1,3]dioxol-5-yl-methyl)-5-(2-hydroxybenzylidene)-2-thioxothiazolidin-4-one], the half-maximal inhibitory concentration (IC50) against E. coli MurD was over 100 µM; on S. aureus MurE it was 1.5 µM. The activity at 100 µM worked out at 100% at E. coli MurD (setting [1]) and 23% on S. aureus MurE.

For `N#Cc1nc(/C=C2/SC(=S)N(Cc3ccc4c(c3)OCO4)C2=O)oc1N1CCOCC1` [Example 9, (E)-2-((3-(benzo[d][1,3]dioxol-5-yl-methyl)-4-oxo-2-thioxothiazolidin-5-ylidene)methyl)-5-morpholinooxazole-4-carbonitrile], the IC50 was over 100 µM against E. coli MurD and 51 µM against S. aureus MurE. The activity at 100 µM on E. coli MurD (setting [1]) turned out to be 98%; on S. aureus MurE it was 17%.

For `O=C1/C(=C/c2cccc(O)c2)SC(=S)N1Cc1ccc2c(c1)OCO2` [Example 10, (Z)-3-(benzo[d][1,3]dioxol-5-yl-methyl)-5-(3-hydroxybenzylidene)-2-thioxothiazolidin-4-one], the IC50 is over 100 µM against E. coli MurD and 13 µM on S. aureus MurE. Moreover, the activity at 100 µM at E. coli MurD (setting [1]) came out at 97%; on S. aureus MurE, 31%.

`CN(C)c1ccc(/C=C2\SC(=S)N(Cc3ccc4c(c3)OCO4)C2=O)cc1` [Example 11, (Z)-3-(benzo[d][1,3]dioxol-5-yl-methyl)-5-(4-(dimethylamino)benzylidene)-2-thioxothiazolidin-4-one]: the IC50 against E. coli MurD was over 100 µM; at S. aureus MurE, 4.5 µM. Moreover, the activity at 100 µM on E. coli MurD (setting [1]) came to 95%; at S. aureus MurE it was 25%.

`CCN(CC)c1ccc(/C=C2\SC(=S)N(Cc3ccc4c(c3)OCO4)C2=O)cc1` [Example 12, (Z)-3-(benzo[d][1,3]dioxol-5-yl-methyl)-5-(4-(diethylamino)benzylidene)-2-thioxothiazolidin-4-one]: the IC50 against E. coli MurD and against S. aureus MurE was over 100 µM each time. For the same compound, the activity at 100 µM at E. coli MurD (setting [1]) was found to be 78%; on S. aureus MurE, 59%.

With `COc1ccccc1/C=C1\SC(=S)N(Cc2ccc3c(c2)OCO3)C1=O` [Example 13, (Z)-3-(benzo[d][1,3]dioxol-5-yl-methyl)-5-(2-methoxybenzylidene)-2-thioxothiazolidin-4-one], the IC50 against E. coli MurD and against S. aureus MurE was over 100 µM throughout. Also, the activity at 100 µM was determined as 75% on E. coli MurD (setting [1]) and 90% on S. aureus MurE.

With `COc1ccc(/C=C2\SC(=S)N(Cc3ccc4c(c3)OCO4)C2=O)c(OC)c1` [Example 14, (Z)-3-(benzo[d][1,3]dioxol-5-yl-methyl)-5-(2,4-dimethoxybenzylidene)-2-thioxothiazolidin-4-one], the IC50 against E. coli MurD and against S. aureus MurE was over 100 µM each time. Further, the results for the activity at 100 µM at E. coli MurD (setting [1]) and on S. aureus MurE were 72% and 67%, respectively.
